Data reported in publication PMC10253817, “Design, Pharmacological Characterization, and Molecular Docking of Minimalist Peptidomimetic Antagonists of α4β1 Integrin” (International Journal of Molecular Sciences, 2023).
*1 amine or outer side, *2 acyl side, *3 side chain or, on linkers, in order; H or OH if unused. Where a SMILES comes first, the peptide text is derived from it. [ ]: non-standard residue; d: D form. The star is where a group is joined. X1 = O=C(Cc1ccc(N[*:1])cc1)[*:2]; NH(2-Me-phenyl) = Cc1ccccc1N*; CO = O=C([*:1])[*:2]

Experiments:
[1] = tested on: antigen-induced airway hyper-responsiveness; design: method as in PMID 10934094; details: allergic sheep; cited from earlier work
[2] = design: method as in PMID 12086484; details: cited from earlier work
[3] = design: method as in PMID 17523052, PMID 11682211; details: plasma; heparinized blood; homogenates of rat liver, lungs, and intestines; cited from earlier work
α4β1 integrin [4] = target: T1, α4β1 integrin (Homo sapiens, UniProt P05556+P13612); assay: α4β1 integrin-mediated Jurkat E6.1 cell adhesion to FN; assay type: cell-based; details: Jurkat E6.1 cell adhesion to FN (10 μg/mL); antag. = reduced cell adhesion; mean ± SD
T1 construct: Jurkat E6.1 cell line, which endogenously expresses α4β1 integrin; host or cells: Jurkat E6.1
Experimental: To investigate the ability of the new peptides to modulate integrin-mediated cell adhesion, we employed cell adhesion assays using a Jurkat E6.1 cell line, which endogenously expresses α4β1 integrin and the natural ligand FN. […] On the contrary, ligands able to increase cell adhesion are defined as agonists.
(§1) The assays were performed as previously described. Briefly, regarding adhesion assays on Jurkat E6.1 or HL-60 cells, black 96-well plates (Corning Costar) were coated overnight at 4 °C with FN or Fg (10 μg/mL) or VCAM-1 (2 μg/mL) in order to investigate α4β1 integrin-mediated cell adhesion. To avoid any kind of unspecific binding, plates were incubated with 100 μL/well of blocking solution (1% BSA in HBSS) for 30 min at 37 °C. Cells were counted, stained with the CellTracker green CMFDA (12.5 μM, 30 min at 37 °C, Life Technologies Italia, Milan, Italy) and after three washes, were preincubated with increasing concentrations of new compounds (10^−10–10^−4 M) or with the vehicle (methanol) for 30 min at 37 °C.
(§2) Then, cells were plated (500,000/well) on coated wells and incubated for 30 min at 37 °C. Afterwards nonadherent cells were removed via washing with a blocking solution, and the remaining adhered cells were lysed with 0.5% Triton X-100 in PBS (30 min at 4 °C). Green fluorescence was measured (Ex485 nm/Em535 nm) using an EnSpire Multimode Plate Reader (PerkinElmer, Waltham, MA, USA).
(§3) In both types of adhesion assay, the number of adherent cells was determined via comparison with a standard curve made in the same plate. Experiments were carried out in quadruplicate and repeated at least three times. Data analysis and EC50 or IC50 values were calculated using GraphPad Prism 9.5.1 (GraphPad Software, San Diego, CA, USA).

α4β1 integrin [5] = target: T1, α4β1 integrin; assay: LDV-FITC competitive binding on intact Jurkat E6.1 cells
Experimental: The assays were performed as previously described with the following modifications. Jurkat E6.1 cells were resuspended (50,000 cells/sample) in 0.1% BSA in a HEPES buffer (NaCl 110 mM; KCl 10 mM; Glucose 10 mM; MgCl2 1 mM; CaCl2 1.5 mM; HEPES 30 mM; pH 7.4) and pre-incubated with different concentrations (10^−11–10^−5 M) of compounds for 20–30 min at RT. Then, LDV-FITC (5 µM) was added to the cells, and they were incubated in the dark for an additional 30 min at RT. At the end of the incubation with LDV-FITC, cells were washed with 0.1% BSA in a HEPES buffer. The FITC fluorescence intensity was measured using an EnSpire Multimode Plate Reader (PerkinElmer, Waltham, MA, USA). The data were plotted as LDV-FITC specific bindings versus the concentration of the competitor, and the data were fitted to a one-site competition equation; the equilibrium dissociation constant Ki was calculated from the IC50 using the Cheng–Prusoff equation.

[6] = design: method as in PMID 30051467, PMID 33584300; details: cited from earlier work
α4β1 integrin [7] = target: T1, α4β1 integrin; assay: α4β1 integrin-mediated Jurkat cell adhesion to VCAM-1; assay type: cell-based; details: Jurkat cell adhesion to VCAM-1 (2 μg/mL); antag. = reduced cell adhesion; mean ± SD
Experimental: (§4) To this purpose, the ability of the best peptidomimetics to modulate cell adhesion mediated by integrins other than α4β1 was evaluated in HL60 cells, mainly expressing the leukocyte integrin αMβ2, and on K562 cells, mainly expressing α5β1, which shares a β1 subunit with the heterodimer α4β1. […] In contrast, 13 was a moderate promoter of cell adhesion mediated by αMβ2 integrin, behaving as an agonist. Regarding α5β1 integrin, none of the peptidomimetics employed were able to modulate K562 cell adhesion, thus being shown to be completely ineffective toward α5β1 integrin. The reference compound DS-70 was ineffective toward both αMβ2 and α5β1 integrins under the same experimental conditions (Table 3).
as §1, §2, §3

α5β1 integrin = target: T2, α5β1 integrin (Homo sapiens, UniProt P05556+P08648); assay: α5β1 integrin-mediated K562 cell adhesion to FN; assay type: cell-based; details: K562 cell adhesion to FN (10 μg/mL)
T2 construct: K562 cells, mainly expressing α5β1, which shares a β1 subunit with the heterodimer α4β1; host or cells: K562 (PMA-treated)
Experimental: as §4
For adhesion assays mediated by α5β1 integrin, K562 cells were pre-treated with PMA (64.85 nM, Merck Life Science, Milan, Italy) for 48 h to enhance α5β1 integrin expression. 96-well plates were coated via passive adsorption with FN (10 μg/mL) overnight at 4 °C; then, the following day, plates were blocked by adding 100 μL/well of a blocking solution (1% BSA in PBS) and incubated for 1 h at 37 °C. K562 cells were counted and preincubated with various concentrations (10^−10–10^−4 M) of the peptides or with the vehicle for 30 min at RT. Then, K562 cells were plated (50,000 cells/well) and incubated at RT for 1 h. The wells were then washed three times with 1% BSA in PBS, and 50 μL of hexosaminidase substrate was added and incubated at RT for 1 h. After the addition of 100 μL of stopping solution (50 mM glycine and 5 mM EDTA, pH 10.4), plates were read at 405 nm in an EnSpire Multimode Plate Reader.
as §3
Cell culture. Jurkat E6.1 (expressing both α4β1 and αLβ2 integrin), K562 (expressing α5β1 integrin) and HL60 (expressing α Mβ2 integrin) cell lines were purchased from ATCC (Rockville, MD, USA); these cells were routinely cultured in RPMI-1640 (Life Technologies) supplemented with 1% glutamine and 10% fetal bovine serum (FBS). Cells were grown at 37 °C under 5% CO 2 humidified atmosphere. 40 h before the adhesion assays, K562 and HL60 cells were treated with 25 nM or 40 nM phorbol 12 -myristate 13-acetate (PMA; Sigma-Aldrich), respectively, to induced cell differentiation and to increased α5β1 or αMβ2 integrin expression on cell surface (Baiula et al., 2016).
Cell adhesion assays . Concentration-response curves, obtained from cell adhesion assays performed in […]
Figure S1. […]

αMβ2 integrin = target: T3, αMβ2 integrin (Homo sapiens, UniProt P05107+P11215); assay: αMβ2 integrin-mediated HL60 cell adhesion to Fg; assay type: cell-based; details: HL60 cell adhesion to Fg (10 μg/mL); antagonists; mean ± SD
T3 construct: HL60 cells, mainly expressing the leukocyte integrin αMβ2; host or cells: HL60 (PMA-treated)
Experimental: as §4, §1, §2, §3
Cell culture. Jurkat E6.1 (expressing both α4β1 and αLβ2 integrin), K562 (expressing α5β1 integrin) and HL60 (expressing α Mβ2 integrin) cell lines were purchased from ATCC (Rockville, MD, USA); these cells were routinely cultured in RPMI-1640 (Life Technologies) supplemented with 1% glutamine and 10% fetal bovine serum (FBS). Cells were grown at 37 °C under 5% CO 2 humidified atmosphere. […]

α4β1 integrin [8] = target: T1, α4β1 integrin; assay: HUTS-21 monoclonal antibody binding (α4β1 integrin conformation), flow cytometry; assay type: cell-based; details: Jurkat E6.1 cells; compounds 1–100 nM; FN 10 µg/mL; versus vehicle
Description: Integrin functions are regulated by a number of conformational changes in the protein itself. […] Conformational changes can be evaluated by using conformationally sensitive antibodies which specifically recognize epitopes exposed only in a defined structural conformation. To better depict peptidomimetics–α4β1 integrin interactions, we employed PE-conjugated HUTS-21 mAb that recognizes an epitope mapped to the hybrid domain of the β1 subunit.
Conversely, antagonists 3, 8, and 13, although binding to α4β1 integrin as previously shown, were not able to induce any conformational rearrangement, showing very low binding of HUTS-21 mAb.
Flow cytometry analysis was performed as previously described, with the following modifications. Jurkat E6.1 cells were resuspended in 1% BSA in HBSS (50,000 cells/sample); then, FN (10 μg/mL) and two concentrations of the best peptidomimetics (100–1 nM) were added to the cells for 30 min. Thereafter, phycoerythrin (PE)-conjugated, conformational-sensitive HUTS-21 mAb (PE mouse anti-human CD29 antibody, Becton Dickinson Italia, Milan, Italy) (20 μL/sample) was added for 45 min at room temperature; after two washes, Jurkat E6.1 cells were suspended in PBS, and 10,000 cells/sample were acquired in a Guava®EasyCyte Flow Cytometer. The data are presented as the mean fluorescence intensity (MFI). Data were normalized with the relative fluorescence for nonspecific binding evaluated by exposing the cells to an isotype control mAb set to 0.

T1 sequence (P13612 34-1032): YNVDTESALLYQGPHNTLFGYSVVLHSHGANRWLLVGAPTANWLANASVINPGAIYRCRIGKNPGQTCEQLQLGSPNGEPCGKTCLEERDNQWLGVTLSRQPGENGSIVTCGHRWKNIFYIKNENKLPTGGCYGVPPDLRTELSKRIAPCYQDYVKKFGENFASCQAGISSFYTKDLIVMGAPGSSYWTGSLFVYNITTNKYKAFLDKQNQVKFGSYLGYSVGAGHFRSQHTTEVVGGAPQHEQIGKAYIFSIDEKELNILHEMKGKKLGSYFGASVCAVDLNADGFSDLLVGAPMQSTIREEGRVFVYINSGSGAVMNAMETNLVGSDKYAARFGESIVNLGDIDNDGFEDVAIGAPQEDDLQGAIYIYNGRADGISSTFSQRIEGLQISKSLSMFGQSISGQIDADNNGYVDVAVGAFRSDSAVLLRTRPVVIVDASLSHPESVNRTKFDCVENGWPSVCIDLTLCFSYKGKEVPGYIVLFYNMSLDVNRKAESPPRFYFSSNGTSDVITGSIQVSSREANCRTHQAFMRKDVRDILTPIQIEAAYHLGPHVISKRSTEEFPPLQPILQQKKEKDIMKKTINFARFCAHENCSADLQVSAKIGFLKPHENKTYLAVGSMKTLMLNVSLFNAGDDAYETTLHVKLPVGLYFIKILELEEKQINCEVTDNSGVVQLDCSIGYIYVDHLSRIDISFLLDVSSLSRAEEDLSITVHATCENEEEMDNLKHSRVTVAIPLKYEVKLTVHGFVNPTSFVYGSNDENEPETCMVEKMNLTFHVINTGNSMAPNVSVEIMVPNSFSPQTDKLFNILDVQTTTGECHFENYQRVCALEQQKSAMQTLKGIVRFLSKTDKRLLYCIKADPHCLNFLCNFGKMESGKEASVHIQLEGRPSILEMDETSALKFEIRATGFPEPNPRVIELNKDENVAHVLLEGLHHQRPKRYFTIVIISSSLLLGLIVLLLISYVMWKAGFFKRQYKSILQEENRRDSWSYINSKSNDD
T1 sequence (P05556 21-798): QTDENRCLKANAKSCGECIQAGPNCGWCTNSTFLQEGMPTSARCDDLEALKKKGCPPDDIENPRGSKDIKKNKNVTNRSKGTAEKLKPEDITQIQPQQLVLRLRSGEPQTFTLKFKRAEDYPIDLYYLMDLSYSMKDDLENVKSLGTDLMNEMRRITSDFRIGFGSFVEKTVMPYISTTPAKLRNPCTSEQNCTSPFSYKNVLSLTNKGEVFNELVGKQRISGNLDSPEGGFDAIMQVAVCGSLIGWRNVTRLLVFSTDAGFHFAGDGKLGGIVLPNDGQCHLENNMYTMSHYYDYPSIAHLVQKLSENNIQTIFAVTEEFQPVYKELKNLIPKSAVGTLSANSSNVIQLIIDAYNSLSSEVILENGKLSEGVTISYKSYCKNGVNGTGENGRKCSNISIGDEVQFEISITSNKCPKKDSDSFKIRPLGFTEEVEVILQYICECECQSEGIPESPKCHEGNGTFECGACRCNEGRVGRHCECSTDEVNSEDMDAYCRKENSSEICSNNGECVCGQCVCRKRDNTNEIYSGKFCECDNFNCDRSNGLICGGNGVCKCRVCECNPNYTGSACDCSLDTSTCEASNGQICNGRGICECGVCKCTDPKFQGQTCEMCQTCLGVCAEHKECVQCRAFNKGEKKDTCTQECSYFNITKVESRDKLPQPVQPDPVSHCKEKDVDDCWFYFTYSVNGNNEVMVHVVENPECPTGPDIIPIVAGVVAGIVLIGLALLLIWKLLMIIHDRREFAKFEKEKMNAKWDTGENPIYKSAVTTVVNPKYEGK
T3 sequence (P05107 23-769, other chains not shown): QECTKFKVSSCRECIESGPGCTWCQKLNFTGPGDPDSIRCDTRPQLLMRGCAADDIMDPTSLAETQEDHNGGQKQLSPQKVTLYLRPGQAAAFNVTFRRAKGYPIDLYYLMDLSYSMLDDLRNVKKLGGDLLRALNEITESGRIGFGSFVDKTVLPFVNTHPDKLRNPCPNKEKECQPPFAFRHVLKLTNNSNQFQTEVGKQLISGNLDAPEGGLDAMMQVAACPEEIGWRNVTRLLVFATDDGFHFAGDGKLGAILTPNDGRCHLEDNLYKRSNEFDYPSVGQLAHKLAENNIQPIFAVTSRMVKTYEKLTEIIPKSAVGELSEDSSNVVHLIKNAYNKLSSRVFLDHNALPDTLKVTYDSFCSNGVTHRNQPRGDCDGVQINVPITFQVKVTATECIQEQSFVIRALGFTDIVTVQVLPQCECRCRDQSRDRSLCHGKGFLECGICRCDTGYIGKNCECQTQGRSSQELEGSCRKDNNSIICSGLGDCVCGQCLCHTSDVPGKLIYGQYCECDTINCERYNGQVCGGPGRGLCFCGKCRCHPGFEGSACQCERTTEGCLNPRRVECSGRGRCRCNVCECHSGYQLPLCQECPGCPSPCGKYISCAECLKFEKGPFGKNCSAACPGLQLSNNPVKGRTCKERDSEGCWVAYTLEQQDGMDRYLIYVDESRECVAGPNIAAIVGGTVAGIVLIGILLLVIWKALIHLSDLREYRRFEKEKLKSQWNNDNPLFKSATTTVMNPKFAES
T2 sequence (P08648 42-894 limits assumed): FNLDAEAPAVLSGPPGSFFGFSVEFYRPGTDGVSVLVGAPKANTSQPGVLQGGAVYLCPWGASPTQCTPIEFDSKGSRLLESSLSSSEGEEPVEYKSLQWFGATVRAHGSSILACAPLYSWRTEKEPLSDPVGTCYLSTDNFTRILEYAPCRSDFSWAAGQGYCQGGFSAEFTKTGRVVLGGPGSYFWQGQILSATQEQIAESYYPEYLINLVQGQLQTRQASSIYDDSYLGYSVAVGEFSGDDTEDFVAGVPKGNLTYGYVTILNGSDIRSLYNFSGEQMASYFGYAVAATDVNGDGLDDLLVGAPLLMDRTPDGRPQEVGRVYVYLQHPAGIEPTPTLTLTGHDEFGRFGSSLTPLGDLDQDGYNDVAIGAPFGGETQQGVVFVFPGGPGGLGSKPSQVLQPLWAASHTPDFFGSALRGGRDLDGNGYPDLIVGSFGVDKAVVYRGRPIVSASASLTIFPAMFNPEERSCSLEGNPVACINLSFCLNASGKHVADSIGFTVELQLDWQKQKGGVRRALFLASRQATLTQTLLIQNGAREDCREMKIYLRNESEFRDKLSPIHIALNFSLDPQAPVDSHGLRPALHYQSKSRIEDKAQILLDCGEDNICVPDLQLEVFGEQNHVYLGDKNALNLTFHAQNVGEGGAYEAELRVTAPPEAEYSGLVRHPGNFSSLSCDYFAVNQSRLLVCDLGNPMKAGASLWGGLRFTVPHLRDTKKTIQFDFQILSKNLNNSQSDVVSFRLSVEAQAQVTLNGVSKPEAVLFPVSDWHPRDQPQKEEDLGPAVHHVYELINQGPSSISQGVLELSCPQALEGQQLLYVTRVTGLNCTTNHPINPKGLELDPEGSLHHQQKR
T2 sequence (P08648 895-1049 partner limits assumed): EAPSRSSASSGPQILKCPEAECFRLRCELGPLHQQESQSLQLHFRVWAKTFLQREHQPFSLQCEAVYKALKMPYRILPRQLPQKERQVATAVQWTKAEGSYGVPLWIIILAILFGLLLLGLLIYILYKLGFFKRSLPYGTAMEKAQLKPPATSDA
T2 sequence (P05556 21-798): as the sequence (P05556 21-798) above

For Cc1ccccc1NC(=O)Nc1ccc(CC(=O)N[C@@H](CC(C)C)C(=O)N[C@@H](CC(=O)O)C(=O)N[C@H](C(=O)N2CCC[C@H]2C(=O)O)C(C)C)cc1 [BIO1211, MPUPA-Leu-Asp-Val-ProOH] ({NH(2-Me-phenyl)-CO}-[X1]LDVP-OH), the antigen-induced airway hyper-responsiveness [1] is given as “capable of inhibiting”, the clearance in vivo [2] is given as “rapid clearance” and the “stability in a biological environment” value [3] is given as “scarcely stable”.
For Cc1ccccc1NC(=O)Nc1ccc(CNC(=O)[C@H]2CCN(C(=O)CC(=O)O)C2)cc1 [DS-23, reference compound], the IC50 (α4β1 integrin [4]) was 0.051 µM.
In the case of Cc1ccccc1NC(=O)Nc1ccc(CC(=O)N2CC[C@H](C(=O)NCC(=O)O)C2)cc1 [DS-70, MPUPA-β^2Pro-Gly, reference compound], the Ki (α4β1 integrin [5]; intact Jurkat E6.1 cells vs. LDV-FITC, mean ± SD) is listed as 0.00094 ± 0.00032 µM, the “stability in mouse serum” value [6] is listed as “noteworthy stability” and the IC50 (α4β1 integrin [7]) is listed as 0.00504 µM. For the same molecule, the IC50 (α5β1 integrin) was over 5 µM, the IC50 (α4β1 integrin [4]) was 0.0043 µM and the IC50 (αMβ2 integrin) was over 5 µM.
In the case of Cc1ccccc1NC(=O)Nc1ccc(CC(=O)NC[C@H](C)C(=O)NCC(=O)O)cc1 [compound 1], the “receptor affinity (in words)” value (α4β1 integrin [5]; α4β1 integrin) is reported as “complete lack of receptor affinity”.
With Cc1ccccc1NC(=O)Nc1ccc(CNC(=O)[C@H](C)CNC(=O)CC(=O)O)cc1 [compound 9] the IC50 (α4β1 integrin [4]) was over 5 µM.
Work on Cc1ccccc1NC(=O)Nc1ccc(CNC(=O)[C@@H](C)CNC(=O)CC(=O)O)cc1 [compound 10] yielded an IC50 (α4β1 integrin [4]) of over 5 µM.
CC(=O)N[C@@H](CNC(=O)CC(=O)O)C(=O)NCc1ccc(NC(=O)Nc2ccccc2C)cc1 [compound 11] gave an IC50 (α4β1 integrin [4]) of over 5 µM.
CC(=O)N[C@H](CNC(=O)CC(=O)O)C(=O)NCc1ccc(NC(=O)Nc2ccccc2C)cc1 [compound 12] showed an IC50 (α4β1 integrin [4]) of over 5 µM.
In the case of Cc1ccccc1NC(=O)Nc1ccc(CNC(=O)C[C@H](C)NC(=O)CC(=O)O)cc1 [compound 14], the IC50 (α4β1 integrin [4]) is reported as over 5 µM.
Work on CCCNC(=O)[C@H](CC(=O)NCc1ccc(NC(=O)Nc2ccccc2C)cc1)NC(=O)CC(=O)O [compound 15] yielded an IC50 (α4β1 integrin [4]) of over 5 µM.
CCCNC(=O)[C@@H](CC(=O)NCc1ccc(NC(=O)Nc2ccccc2C)cc1)NC(=O)CC(=O)O [compound 16] gave an IC50 (α4β1 integrin [4]) of over 5 µM.
For fibronectin [FN], the “binding of HUTS-21 mAb (MFI)” value (α4β1 integrin [8]) was “increased binding of the HUTS-21 mAb”.
